Measurements published in ChEMBL document CHEMBL5046216, “Disrupting Tryptophan in the Central Hydrophobic Region Selectively Mitigates Immunomodulatory Activities of the Innate Defence Regulator Peptide IDR-1002” (J Med Chem, 2021).
Calls of active or inactive are those of the source. The calls are words filed in the database; no cut-off is given here.

Key:
[1] = Retention time of the compound by HPLC analysis; assay type: physicochemical
[2] = test system: HBEC3-KT; test: Cytotoxicity against human HBEC3-KT incubated for 24 hrs by LDH assay; assay type: functional
[3] = test system: Mus musculus; test: (§1) Antiinflammatory activity in house dust-mite-induced BALB/c mouse model of methacholine-induced airway hyperreactivity assessed as reduction in methacholine-induced tissue elastance at 6 mg/kg , ip administered for 2 weeks after methacholine-stimulation at 50 mg/ml measured 24 hrs post-HDM challenge; assay type: functional; design: scale not given: the % may be the effect or the level left
[4] = test system: Mus musculus; test: Effect on IL-25 level in dust-mite-induced BALB/c mouse model of airway inflammation assessed as greater than 2 fold induction at 6 mg/kg, sc administered for 2 weeks and measured 24 hrs post-HDM challenge by MSD multiplex assay; assay type: functional, organism-based
[5] = test system: Mus musculus; test: Effect on IL-23 level in dust-mite-induced BALB/c mouse model of airway inflammation assessed as greater than 2 fold induction at 6 mg/kg, sc administered for 2 weeks and measured 24 hrs post-HDM challenge by MSD multiplex assay; assay type: functional, organism-based
[6] = test system: Mus musculus; test: (§2) Antiinflammatory activity in house dust-mite-induced BALB/c mouse model of methacholine-induced airway hyperreactivity assessed as reduction in methacholine-induced tissue damping at 6 mg/kg , ip administered for 2 weeks after methacholine-stimulation at 12 mg/ml measured 24 hrs post-HDM challenge; assay type: functional, organism-based
[7] = test system: Mus musculus; test: Effect on IL-6 level in dust-mite-induced BALB/c mouse model of airway inflammation assessed as greater than 2 fold induction at 6 mg/kg, sc administered for 2 weeks and measured 24 hrs post-HDM challenge by MSD multiplex assay; assay type: functional, organism-based
[8] = test system: Mus musculus; test: Effect on IL-30 level in dust-mite-induced BALB/c mouse model of airway inflammation assessed as greater than 2 fold induction at 6 mg/kg, sc administered for 2 weeks and measured 24 hrs post-HDM challenge by MSD multiplex assay; assay type: functional, organism-based
[9] = test system: Mus musculus; test: Effect on MIP1alpha level in dust-mite-induced BALB/c mouse model of airway inflammation assessed as greater than 2 fold induction at 6 mg/kg, sc administered for 2 weeks and measured 24 hrs post-HDM challenge by MSD multiplex assay; assay type: functional, organism-based
[10] = test system: Mus musculus; test: Effect on IL-2 level in dust-mite-induced BALB/c mouse model of airway inflammation assessed as greater than 2 fold induction at 6 mg/kg, sc administered for 2 weeks and measured 24 hrs post-HDM challenge by MSD multiplex assay; assay type: functional, organism-based
[11] = test system: HBEC3-KT; test: Antiinflammatory activity in human HBEC3-KT cells assessed as effect on MCP1 expression measured after 24 hrs by ELISA relative to control; assay type: functional, cell-based
[12] = test system: Mus musculus; test: Antiinflammatory activity in house dust-mite-induced BALB/c mouse model of methacholine-induced airway hyperreactivity assessed as reduction in methacholine-induced tissue elastance at 6 mg/kg , ip administered for 2 weeks after methacholine-stimulation at 12 mg/ml measured 24 hrs post-HDM challenge; assay type: functional, organism-based
[13] = test system: Mus musculus; test: Antiinflammatory activity in house dust-mite-induced BALB/c mouse model of airway inflammation assessed as suppression of total neutrophil count in BALF at 6 mg/kg, sc administered for 2 weeks and measured 24 hrs post-HDM challenge by Wright-Giemsa staining based microscopy; assay type: functional
[14] = test system: Mus musculus; test: Effect on IL-10 level in dust-mite-induced BALB/c mouse model of airway inflammation assessed as greater than 2 fold induction at 6 mg/kg, sc administered for 2 weeks and measured 24 hrs post-HDM challenge by MSD multiplex assay; assay type: functional, organism-based
[15] = test system: Mus musculus; test: Effect on IL-17C level in dust-mite-induced BALB/c mouse model of airway inflammation assessed as greater than 2 fold induction at 6 mg/kg, sc administered for 2 weeks and measured 24 hrs post-HDM challenge by MSD multiplex assay; assay type: functional, organism-based
[16] = test system: Mus musculus; test: Effect on IL-17AF level in dust-mite-induced BALB/c mouse model of airway inflammation assessed as greater than 2 fold induction at 6 mg/kg, sc administered for 2 weeks and measured 24 hrs post-HDM challenge by MSD multiplex assay; assay type: functional, organism-based
[17] = test system: Mus musculus; test: Effect on IL-15 level in dust-mite-induced BALB/c mouse model of airway inflammation assessed as greater than 2 fold induction at 6 mg/kg, sc administered for 2 weeks and measured 24 hrs post-HDM challenge by MSD multiplex assay; assay type: functional, organism-based
[18] = Stability of the compound in human HBEC3-KT cells assessed as compound degradation ay 10 uM measured after 16 hrs by FRET assay relative to control; assay type: functional
[19] = test system: HBEC3-KT; test: Antiinflammatory activity in human HBEC3-KT cells assessed as fold increase in IL-1RA expression at 10 uM measured after 24 hrs by ELISA relative to control; assay type: functional
[20] = test system: Mus musculus; test: Effect on IL-12p70 level in dust-mite-induced BALB/c mouse model of airway inflammation assessed as greater than 2 fold induction at 6 mg/kg, sc administered for 2 weeks and measured 24 hrs post-HDM challenge by MSD multiplex assay; assay type: functional, organism-based
[21] = test system: Mus musculus; test: as §2, with “newtonian resistance” for “tissue damping”; assay type: functional, organism-based
[22] = test system: Mus musculus; test: Effect on IL-21 level in dust-mite-induced BALB/c mouse model of airway inflammation assessed as greater than 2 fold induction at 6 mg/kg, sc administered for 2 weeks and measured 24 hrs post-HDM challenge by MSD multiplex assay; assay type: functional, organism-based
[23] = test system: Mus musculus; test: Effect on TNF 1 level in dust-mite-induced BALB/c mouse model of airway inflammation assessed as greater than 2 fold induction at 6 mg/kg, sc administered for 2 weeks and measured 24 hrs post-HDM challenge by MSD multiplex assay; assay type: functional, organism-based
[24] = test system: Mus musculus; test: Antiinflammatory activity in house dust-mite-induced BALB/c mouse model of airway inflammation assessed as suppression of IL-33 abundance in lung tissue lysate at 6 mg/kg, sc administered for 2 weeks and measured 24 hrs post-HDM challenge by ELISA; assay type: functional
[25] = test system: HBEC3-KT; test: Antiinflammatory activity in INFgamma-induced MCP1 expressed in human HBEC3-KT cells assessed as fold change measured after 24 hrs by ELISA relative to control; assay type: functional
[26] = test system: Mus musculus; test: Effect on IL-1beta level in dust-mite-induced BALB/c mouse model of airway inflammation assessed as greater than 2 fold induction at 6 mg/kg, sc administered for 2 weeks and measured 24 hrs post-HDM challenge by MSD multiplex assay; assay type: functional, organism-based
[27] = test system: Mus musculus; test: Effect on IFNgamma level in dust-mite-induced BALB/c mouse model of airway inflammation assessed as greater than 2 fold induction at 6 mg/kg, sc administered for 2 weeks and measured 24 hrs post-HDM challenge by MSD multiplex assay; assay type: functional, organism-based
[28] = test system: Mus musculus; test: Effect on IL-17F level in dust-mite-induced BALB/c mouse model of airway inflammation assessed as greater than 2 fold induction at 6 mg/kg, sc administered for 2 weeks and measured 24 hrs post-HDM challenge by MSD multiplex assay; assay type: functional, organism-based
[29] = test system: Mus musculus; test: Antiinflammatory activity in house dust-mite-induced BALB/c mouse model of airway inflammation assessed as suppression of total leukocyte count in BALF at 6 mg/kg, sc administered for 2 weeks and measured 24 hrs post-HDM challenge by Wright-Giemsa staining based microscopy; assay type: functional
[30] = test system: Mus musculus; test: Effect on IL-31 level in dust-mite-induced BALB/c mouse model of airway inflammation assessed as greater than 2 fold induction at 6 mg/kg, sc administered for 2 weeks and measured 24 hrs post-HDM challenge by MSD multiplex assay; assay type: functional, organism-based
[31] = test system: Mus musculus; test: Effect on MIP2 level in dust-mite-induced BALB/c mouse model of airway inflammation assessed as greater than 2 fold induction at 6 mg/kg, sc administered for 2 weeks and measured 24 hrs post-HDM challenge by MSD multiplex assay; assay type: functional, organism-based
[32] = test system: Mus musculus; test: as §1, with “newtonian resistance” for “tissue elastance”; assay type: functional; design: scale not given: the % may be the effect or the level left
[33] = test system: Mus musculus; test: Effect on IL-5 level in dust-mite-induced BALB/c mouse model of airway inflammation assessed as greater than 2 fold induction at 6 mg/kg, sc administered for 2 weeks and measured 24 hrs post-HDM challenge by MSD multiplex assay; assay type: functional, organism-based
[34] = test system: Mus musculus; test: Effect on MIP3alpha level in dust-mite-induced BALB/c mouse model of airway inflammation assessed as greater than 2 fold induction at 6 mg/kg, sc administered for 2 weeks and measured 24 hrs post-HDM challenge by MSD multiplex assay; assay type: functional, organism-based
[35] = test system: HBEC3-KT; test: Antiinflammatory activity in human HBEC3-KT cells assessed as fold increase in STC1 expression at 10 uM measured after 24 hrs by ELISA relative to control; assay type: functional
[36] = test system: Mus musculus; test: Effect on IL-22 level in dust-mite-induced BALB/c mouse model of airway inflammation assessed as greater than 2 fold induction at 6 mg/kg, sc administered for 2 weeks and measured 24 hrs post-HDM challenge by MSD multiplex assay; assay type: functional, organism-based
[37] = test system: Mus musculus; test: Effect on MCP1 level in dust-mite-induced BALB/c mouse model of airway inflammation assessed as greater than 2 fold induction at 6 mg/kg, sc administered for 2 weeks and measured 24 hrs post-HDM challenge by MSD multiplex assay; assay type: functional, organism-based
[38] = test system: Mus musculus; test: Antiinflammatory activity in house dust-mite-induced BALB/c mouse model of methacholine-induced airway hyperreactivity assessed as reduction in methacholine-induced tissue damping at 6 mg/kg , ip administered for 2 weeks after methacholine-stimulation at 50 mg/ml measured 24 hrs post-HDM challenge; assay type: functional; design: scale not given: the % may be the effect or the level left
[39] = test system: HBEC3-KT; test: Immunomodulatory activity in human HBEC3-KT cells assessed as suppression of INFgamma-induced IL-33 at 10 uM preincubated for 30 mins followed by INFgamma stimulation and measured after 24 hrs by Western blot analysis; assay type: functional
[40] = test system: Mus musculus; test: Effect on IL-9 level in dust-mite-induced BALB/c mouse model of airway inflammation assessed as greater than 2 fold induction at 6 mg/kg, sc administered for 2 weeks and measured 24 hrs post-HDM challenge by MSD multiplex assay; assay type: functional, organism-based
[41] = test system: Mus musculus; test: Effect on IL-17A level in dust-mite-induced BALB/c mouse model of airway inflammation assessed as greater than 2 fold induction at 6 mg/kg, sc administered for 2 weeks and measured 24 hrs post-HDM challenge by MSD multiplex assay; assay type: functional, organism-based
[42] = test system: Mus musculus; test: Antiinflammatory activity in house dust-mite-induced BALB/c mouse model of airway inflammation assessed as suppression of total eosinophil count in BALF at 6 mg/kg, sc administered for 2 weeks and measured 24 hrs post-HDM challenge by Wright-Giemsa staining based microscopy; assay type: functional
[43] = test system: Mus musculus; test: Effect on IL-4 level in dust-mite-induced BALB/c mouse model of airway inflammation assessed as greater than 2 fold induction at 6 mg/kg, sc administered for 2 weeks and measured 24 hrs post-HDM challenge by MSD multiplex assay; assay type: functional, organism-based
[44] = test system: Mus musculus; test: Effect on KC 10 level in dust-mite-induced BALB/c mouse model of airway inflammation assessed as greater than 2 fold induction at 6 mg/kg, sc administered for 2 weeks and measured 24 hrs post-HDM challenge by MSD multiplex assay; assay type: functional, organism-based
[45] = test system: Mus musculus; test: Effect on IP10 level in dust-mite-induced BALB/c mouse model of airway inflammation assessed as greater than 2 fold induction at 6 mg/kg, sc administered for 2 weeks and measured 24 hrs post-HDM challenge by MSD multiplex assay; assay type: functional, organism-based

H-VLRWLIVWRIRK-OH showed a Retention_time [1] of 17.4 min and an Activity [2] of 50%.
Substance H-VQRWLIVIRIRK-OH has a Retention_time [1] of 14.48 min and an Activity [2] of 50%.
With H-VQRWLIVRRIRK-OH the Activity [3] was 63%, the Activity [4] was “inactive” and the Activity [5] was “inactive”. The Activity [6] was “Active”, the Activity [7] was “inactive” and the Activity [8] was “inactive”. For the same substance, the Activity [9] was “inactive”, the Activity [10] was “inactive” and the Activity [11] was “inactive”. The Activity [12] was “Active”, the Activity [13] was “inactive” and the Activity [14] was “inactive”. For the same substance, the Activity [15] was “inactive”, the Activity [16] was “inactive” and the Activity [17] was “inactive”. For the same substance, the Activity [18] was less than 5%, the Activity [19] was “inactive” and the Activity [20] was “inactive”. The Activity [21] was “Active”, the Activity [22] was “inactive” and the Activity [23] was “inactive”. For the same substance, the Activity [24] was “inactive”, the “fold change (FC)” value [25] was “inactive” and the Activity [26] was “inactive”. The Activity [27] was “inactive”, the Activity [28] was “inactive” and the Activity [29] was “inactive”. For the same substance, the Retention_time [1] was 14.04 min, the Activity [30] was “inactive” and the Activity [31] was “inactive”. The Activity [32] was 39%, the Activity [33] was “inactive” and the Activity [34] was “inactive”. For the same substance, the “fold change (FC)” value [35] was “inactive”, the Activity [36] was “inactive” and the Activity [37] was “inactive”. For the same substance, the Activity [38] was 64%, the Activity [39] was “inactive” and the Activity [40] was “inactive”. The Activity [41] was “inactive”, the Activity [42] was “inactive” and the Activity [43] was “inactive”. For the same substance, the Activity [44] was “inactive”, the Activity [2] was “inactive” and the Activity [45] was “inactive”.
